Drawing on patent publication US8957219B2, “Acetic acid amide derivative having inhibitory activity on endothelial lipase” (Shionogi & Co., Ltd., priority 2008, dated 2015), this text covers IC50 for twelve molecules.

Chain of human endothelial lipase (EL) (Q9Y5X9 21-500): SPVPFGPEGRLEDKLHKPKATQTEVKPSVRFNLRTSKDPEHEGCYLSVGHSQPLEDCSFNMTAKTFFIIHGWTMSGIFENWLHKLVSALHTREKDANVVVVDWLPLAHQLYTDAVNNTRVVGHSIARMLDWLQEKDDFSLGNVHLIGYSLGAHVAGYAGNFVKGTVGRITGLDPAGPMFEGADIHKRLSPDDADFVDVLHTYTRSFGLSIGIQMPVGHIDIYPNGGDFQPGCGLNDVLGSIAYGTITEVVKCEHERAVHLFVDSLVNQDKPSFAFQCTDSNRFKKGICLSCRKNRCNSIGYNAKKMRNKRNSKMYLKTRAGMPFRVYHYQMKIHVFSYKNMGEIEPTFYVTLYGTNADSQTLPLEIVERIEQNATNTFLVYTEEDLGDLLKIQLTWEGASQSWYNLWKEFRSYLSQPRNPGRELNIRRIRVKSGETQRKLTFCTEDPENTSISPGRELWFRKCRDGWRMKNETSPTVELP

The experiment deals with human endothelial lipase (EL) (Homo sapiens (Human), UniProt Q9Y5X9). Briefly: Human endothelial lipase (EL) inhibitory activity using human HDL. As to conditions: human HDL 2 mg/ml, 4-hour reaction at 37° C., NEFA readout. It is filed as biochemical. Here is the method:
Evaluation Method of Human Endothelial Lipase (EL) Inhibitory Activity Using Human High-Density Lipoprotein (HDL)
After the present compound dissolved in DMSO was added to become 0.5% DMSO to the reaction buffer consisting of 20 mM tris hydrochloric acid (pH7.4), bovine serum albumin (0.5%), calcium chloride (4 mM), sodium chloride (150 mM) and human HDL (2 mg/ml), the EL enzyme was added (total volume was 20 μl).
After 4-hour reaction at 37° C., non-esterified fatty acid (NEFA) generated from HDL by EL was measured with a commercially available assay kit and the amount of NEFA was used as an index of enzyme activity.
On to `O=C(Cc1nc2cc(-c3cccc(C(F)(F)F)c3)ccc2s1)NCc1cccc(C(=O)O)c1` [II-1-202], for which the midpoint of inhibition, the IC50, lay at 290 nM.

For `CC(O)CNC(=O)CNC(=O)Cc1nc2ccc(-c3ccccc3)cc2s1` (stereo not drawn) [II-2-131], the IC50 (usually the concentration that inhibits the measured activity by half) was 92 nM.

`N#CCNC(=O)CNC(=O)Cc1nc2ccc(-c3ccccc3)cc2s1` [II-2-1] showed an IC50 of 110 nM.

`C#CCNC(=O)CNC(=O)Cc1nc2ccc(-c3ccccc3)cc2s1` [II-2-211]: the IC50 was found to be 32 nM.

Molecule `N#CC1(NC(=O)CNC(=O)Cc2nc3ccc(-c4ccccc4)cc3s2)CC1` [II-2-67] yielded an IC50 of 29 nM.

The molecule `O=C(Cc1nc2ccc(-c3ccccc3)cc2s1)NCc1cccc(C(=O)O)c1` [II-1-1] gave an IC50 of 230 nM.

As for `N#CCNC(=O)CNC(=O)Cc1nc2cc(-c3ccc(OC(F)(F)F)cc3)ccc2s1` [II-2-291], the midpoint of inhibition, the IC50, lay at 56 nM. Against the preceding molecule, the IC50 is about 4.1-fold lower.

On to `NS(=O)(=O)c1cccc(CNC(=O)Cc2nc3ccc(-c4ccccc4)cc3s2)c1` [II-1-11], for which it took 560 nM to reach half-maximal inhibition (IC50).

On to `CN(C)C(=O)c1cccc(CNC(=O)Cc2nc3ccc(-c4ccccc4)cc3s2)c1` [II-1-17], for which the half-inhibitory concentration (IC50) came out at 1300 nM. Against the preceding molecule, the IC50 is about 2.3-fold higher.

As for `O=C(Cc1nc2ccc(-c3ccccc3)cc2s1)NCc1nc(C(=O)O)cs1` [II-1-246], the IC50 turned out to be 280 nM.

For `COc1cc2nc(CC(=O)NCC(=O)NCC#N)sc2cc1-c1ccccc1` [II-2-144], the IC50 was determined as 29 nM. This IC50 lies about 9.7-fold lower than the previous one.

The molecule `COCC(O)CNC(=O)Cc1nc2ccc(-c3ccccc3)cc2s1` (stereo not drawn) [II-1-190] returned a half-maximal inhibitory concentration (IC50) of 2100 nM.
